{"source": "patent US20250288572A1", "about": "“COMPOSITIONS AND METHODS FOR TREATING PULMONARY VASCULAR DISEASE” (UNIVERSITY OF PITTSBURGH-OF THE COMMONWEALTH SYSTEM OF …, priority 2022, published 2025)", "key": {"PAECs [1]": {"system": "PAECs", "assay": "BrdU growth (proliferation) assay in PAECs", "type": "cell-based, human", "method": "BrdU growth assay: Cell proliferation was assayed relative to day 0 using a BrdU Cell Proliferation Assay Kit (#6813, Cell Signaling) according to the manufacturer's protocol after incubation for 2 h with BrdU."}, "PAECs [2]": {"system": "PAECs", "assay": "RT-qPCR gene expression in PAECs", "type": "cell-based, human", "method": "(§1) The hypoxia chamber (modular incubator chamber) was obtained from Billups-Rothenberg Inc. (Del Mar, Cali) and placed in regulated CO2 incubator at 37° C.\nRT-qPCR analysis: Cells were lysis in 1 ml of QiaZol reagent (Qiagen). Total RNA content was extracted using the RNeasy kit (Qiagen), according to the manufacturer's instructions. Total RNA concentration was determined using a BioTek Synergy multimode plate reader. Messenger RNAs were reverse transcribed to generate cDNA using the Multiscript RT kit (Thermo Fisher Scientific). cDNA for specific gene targets was amplified and quantified via fluorescently-labeled Taqman primer sets and Taqman fast advanced master mix (Thermo Fisher Scientific) using an Applied Biosystems QuantStudio 6 Flex Real-Time PCR System."}, "ISCU [3]": {"system": "ISCU", "assay": "Immunoblot and densitometry of ISCU and GSTP1 in PASMCs", "type": "cell-based, human", "conditions": "IL-6/sIL-6R + hypoxia, BRD2889 1 uM", "method": "(§2) BRD2889 (1 uM) vs. vehicle control were added, as indicated, and placed into a hypoxia chamber for 24 h. The hypoxia chamber (modular incubator chamber) was obtained from Billups-Rothenberg Inc. (Del Mar, Cali) and placed in regulated CO2 incubator at 37° C.\n(§3) Immunoblot and densitometry: Cells were lysed in RIPA buffer (Sigma) along with 1× protease inhibitor cocktail (Sigma). Protein lysate was resolved by gradient 4%-15% SDS-PAGE gels and transferred onto a 0.2 μm PVDF membrane (Bio-Rad). Membranes were blocked in 5% non-fat milk in 1×PBST buffer for one hour at room temperature. Later, they were incubated in the presence of the primary antibody overnight at 4° C., and then appropriate HRP-conjugated secondary antibodies (Life Technologies). The following antibodies were used: human LGALS8 (AF1305, RnD Systems), mouse/rat Lgals8 ([…], Abcam), pSTAT1 (ab29045, Abcam) and STAT1 (ab47425, Abcam), GSTP1 (ab153949, Abcam), ISCU (14812-1-AP, Pointech), Glutathione (ab19534, Abcam), HIF2A (NB100-122, Novous), α-Tubulin (CP06, Millipore sigma), and ACTB (sc-47778, Santa Cruz). The immunoreactive bands were visualized with the Chemidoc XRS+ system (Bio-Rad) using SuperSignal West Femto chemiluminescent substrates (Thermo Fisher Scientific). The images were later quantified using AlphaEaseFC software (Alpha Innotech)."}, "mitochondrial Complex 1 [4]": {"system": "mitochondrial Complex 1", "assay": "Mitochondrial Complex 1 activity in PAECs", "type": "cell-based, human", "method": "(§4) Measurement of mitochondrial complex activities: Complex 1 activity of isolated mitochondria were measured using Complex 1 Enzyme Activity Microplate assay kit (Abcam, ab109721) according to the manufacturer's protocol. These enzymes were captured within the wells of the microplate coated by the corresponding complex enzyme antibody, and activities were detected colorimetrically."}, "PASMCs": {"system": "PASMCs", "assay": "Apoptosis (caspase 3/7) in PASMCs", "type": "cell-based, human", "conditions": "IL-6/sIL-6R + hypoxia", "method": "as §2\n(§5) Cellular apoptosis: Caspase-3/7 activity was quantified using the Caspase-Glo 3/7 Assay (Promega), according to manufacturer's instructions. Caspase-3/7 activity was normalized to total protein content determined by BCA method (Thermo Fisher Scientific)."}, "mitochondrial Complex 1 [5]": {"system": "mitochondrial Complex 1", "assay": "Mitochondrial Complex 1 activity in PASMCs", "type": "cell-based, human", "conditions": "IL-6/sIL-6R + hypoxia", "method": "as §2, §4"}, "ISCU [6]": {"system": "ISCU", "assay": "Immunoprecipitation/immunoblot of glutathionylated ISCU in PAECs", "type": "cell-based, human", "design": "dose or concentration left out as unconfirmed", "conditions": "hypoxic PAECs, BRD2889 (24 h)", "method": "as §3, with “The immunoreactive bands were visualized with the Chemidoc XRS+ system (Bio-Rad) using SuperSignal West Femto chemiluminescent substrates (Thermo Fisher Scientific).” left out\nImmunoprecipitation: PAECs were transfected with the indicated combinations of siRNAs by Lipofectamine 2000 (Thermo Fisher Scientific) according to the manufacturer's instructions and/or treated with BRD2889 ([…], 24 h). […] After extensive washing, the immunoprecipitated proteins were analyzed by immunoblotting with the indicated antibodies."}, "ISCU [7]": {"system": "ISCU", "assay": "Immunoblot and densitometry of ISCU and GSTP1 in PAECs", "type": "cell-based, human", "method": "as §2, §3"}, "PAECs [8]": {"system": "PAECs", "assay": "Cellular apoptosis, caspase-3/7 activity (Caspase-Glo 3/7) in PAECs", "type": "cell-based, human", "method": "as §1, §5"}, "hypoxic IL-6 Tg mice": {"system": "hypoxic IL-6 Tg mice", "assay": "Chronically hypoxic IL-6 transgenic PAH mouse model", "type": "in vivo, IL-6 transgenic mice (C57B/6 background)", "method": "Pulmonary-specific IL-6 transgenic mice (C57B/6 background) were described previously (Steiner M K et al. Circ Res. 2009, 104, 236-244, 228p following 244). These mice were bred in house, and 12 week old male transgenic mice vs. control littermates were compared. Mice were injected i.p. every 3 days with vehicle control (2.5% DMSO) vs. BRD2889 (5 mg/kg vs. […] Circ Res. 2009, 104, 236-244, 228p following 244).\nRodent echocardiography: Echocardiography was performed using a 15-45M Hz transthoracic transducer and a Visual Sonics Vevo 3100 system (Fujifilm). Inhaled isoflurane anesthesia was used at 2% in 100% 02 during positioning and hair removal and then decreased to isoflurane 0.8% during imaging."}, "[9]": {"system": "glutathione S-transferase (GST)", "assay": "Measurement of GST activity in PAECs", "type": "cell-based, human", "method": "as §2"}, "[10]": {"conditions": "hypoxic PAECs with siRNA knockdown of ISCU"}, "[11]": {"conditions": "PAECs, IL-6/sIL-6R + hypoxia, BRD2889 1 uM"}, "[12]": {"conditions": "BRD2889 10 mg/kg vs vehicle, 10 days, 10 mg/kg"}, "[13]": {"conditions": "BRD2889 5 and 10 mg/kg i.p. every three days"}}, "note": "“Also recorded” adds a separate entry of the source.", "data": [{"compound": "COc1ccc(C#CC2CCCN(C(=O)/C=C/c3cc(OC)c(OC)c(OC)c3)C2=O)cc1", "note": "(centres unmarked) [BRD2889, (E)-3-((4-methoxyphenyl)ethynyl)-1-(3-(3,4,5-trimethoxyphenyl)acryloyl)piperidin-2-one]", "values": [{"measurement": "proliferation (BrdU incorporation)", "setting": "PAECs [1]; PAECs, IL-6/sIL-6R + hypoxia", "result": "increased proliferation; also recorded: reversing"}, {"measurement": "proliferation (BrdU incorporation)", "setting": "PAECs [1]; hypoxic PAECs", "result": "reversed the decrease; also recorded: reversed hypoxic alterations"}, {"measurement": "proliferation (BrdU incorporation)", "setting": "PAECs [1]; [10]", "result": "did not reverse the hypoxia-induced decrease"}, {"measurement": "inflammatory gene transcripts (EDN1, VCAM1, ICAM1)", "setting": "PAECs [2]; IL-6/sIL-6R + hypoxia", "result": "normalized this upregulation"}, {"measurement": "ISCU transcript", "setting": "PAECs [2]; hypoxia 48 hrs, BRD2889 5 uM", "result": "fully reversing the hypoxic decrease of ISCU; also recorded: rescued by BRD2889"}, {"measurement": "expression of C43 genes MID2, BANP, AGTRAP", "setting": "PAECs [2]; hypoxia 48 hrs, BRD2889 5 uM", "result": "unaffected in hypoxia by BRD2889"}, {"measurement": "mTOR transcript", "setting": "PAECs [2]; hypoxia 48 hrs, BRD2889 5 uM", "result": "partially reversing the decrease of mTOR; also recorded: rescued by BRD2889"}, {"measurement": "GSTP1 protein expression", "setting": "ISCU [3]", "result": "did not affect"}, {"measurement": "ISCU protein", "setting": "ISCU [3]", "result": "failed to rescue ISCU"}, {"measurement": "mitochondrial Complex 1 activity", "setting": "mitochondrial Complex 1 [4]; PAECs, IL-6/sIL-6R + hypoxia", "result": "partially rescued mitochondrial Complex 1 activity; also recorded: reversing the IL-6/R+hypoxia-mediated decrease"}, {"measurement": "mitochondrial Complex 1 activity", "setting": "mitochondrial Complex 1 [4]; hypoxic PAECs", "result": "reversed the decrease; also recorded: reversed hypoxic alterations"}, {"measurement": "mitochondrial Complex 1 activity", "setting": "mitochondrial Complex 1 [4]; [10]", "result": "did not reverse the hypoxia-induced decrease"}, {"measurement": "apoptosis", "setting": "PASMCs", "result": "only subtly changed"}, {"measurement": "mitochondrial Complex 1 activity", "setting": "mitochondrial Complex 1 [5]", "result": "did not affect"}, {"measurement": "ISCU glutathionylation (α-GSH immunoblot after α-ISCU pulldown)", "setting": "ISCU [6]", "result": "converse reduction of glutathionylation; also recorded: reversed these findings; also recorded: reversal of the hypoxic induction of ISCU glutathionylation"}, {"measurement": "GSTP1 expression", "setting": "ISCU [7]; [11]", "result": "without altering GSTP1 expression"}, {"measurement": "ISCU expression (immunoblot)", "setting": "ISCU [7]; [11]", "result": "reversed the decrease in ISCU expression; also recorded: reversed the IL-6/R+hypoxic decrease"}, {"measurement": "GSTP1 expression", "setting": "ISCU [7]; hypoxic PAECs", "result": "did not affect GSTP1 expression"}, {"measurement": "ISCU protein levels", "setting": "ISCU [7]; hypoxic PAECs", "result": "reversed hypoxia-dependent reduction of ISCU protein levels; also recorded: ISCU levels were increased; also recorded: reversed hypoxic alterations; also recorded: reversed these findings; also recorded: also reversed the hypoxia-induced reduction of ISCU"}, {"measurement": "apoptosis (caspase 3/7 activity)", "setting": "PAECs [8]; PAECs, IL-6/sIL-6R + hypoxia", "result": "reduced apoptosis; also recorded: reversing"}, {"measurement": "apoptosis (caspase 3/7 activity)", "setting": "PAECs [8]; [10]", "result": "did not reverse the hypoxic increase"}, {"measurement": "apoptosis (caspase 3/7 activity)", "setting": "PAECs [8]; hypoxic PAECs, BRD2889", "result": "reversed the increase in apoptosis; also recorded: reversed hypoxic alterations"}, {"measurement": "heart rate", "setting": "hypoxic IL-6 Tg mice; [12]", "result": "No significant differences"}, {"measurement": "left ventricular function (fractional shortening, ejection fraction, posterior wall thickness)", "setting": "hypoxic IL-6 Tg mice; [12]", "result": "No significant differences"}, {"measurement": "Fulton index (RV/LV+S)", "setting": "hypoxic IL-6 Tg mice; [13]", "result": "dose-dependent reduction; also recorded: reduced"}, {"measurement": "ISCU in arterioles / CD31+ endothelium", "setting": "hypoxic IL-6 Tg mice; [13]", "result": "rescued ISCU; also recorded: increased"}, {"measurement": "RVSP", "setting": "hypoxic IL-6 Tg mice; [13]", "result": "dose-dependent reduction; also recorded: reduced"}, {"measurement": "arteriolar muscularization / pulmonary arteriolar remodeling", "setting": "hypoxic IL-6 Tg mice; [13]", "result": "reduction; also recorded: reduced"}, {"measurement": "cleaved caspase-3 (CC-3), endothelial apoptosis", "setting": "hypoxic IL-6 Tg mice; [13]", "result": "reduction; also recorded: decreased"}, {"measurement": "lung total GST enzyme activity", "setting": "hypoxic IL-6 Tg mice; [13]", "result": "dose-dependent reduction; also recorded: decreased lung GST activity in a dose-dependent manner"}, {"measurement": "GST activity", "setting": "[9]; [11]", "result": "reversed the increase in GSTP1 activity; also recorded: reversed the IL-6/R+ hypoxia-mediated increase"}, {"measurement": "GST enzyme activity", "setting": "[9]; hypoxic PAECs", "result": "reduced the hypoxic increase in GST enzyme activity; also recorded: reversed hypoxic alterations"}]}]}
